Here are results for 67 compounds from patent publication US5994041A, “Process for buffering concentrated aqueous slurries” (priority 1998, dated 1999).

The conditions of series [1]: cited from earlier work.
Series [2] in a line: pH measurement of FD1 slurry on addition of buffering salt. It is filed as physicochemical. Particulars: 0.1 mole/L aqueous salt added to S1 slurry.
Protocol: Measurements of pH were made using a Corning combination pH electrode, calibrated with VWR buffers of pH 4.0 and pH 7.0, using a Radiometer Copenhagen PHM63 pH meter. Equilibrated measurements were taken at about 24° C. while stirring the solutions or slurries.
About 97.0 g of the above described S1 slurry were placed in a 200 mL beaker upon a magnetic stirrer, and this slurry was moderately stirred using a magnetic stirring bar.
About 93.9 g of the above described S1 slurry were placed in a 200 mL beaker upon a magnetic stirrer, and was moderately stirred. […] Aliquots of 0.1 mole/L aqueous sodium citrate were added, and pH was recorded after each addition.
About 93.3 g of the above described S1 slurry were placed in a 200 mL beaker and stirred.
Series [3] can be described thus: Electroacoustic sonic amplitude (ESA) as a function of pH. Type of series: physicochemical.
The conditions of series [4]: Texter, Langmuir, 8, 291 (1992), cited from earlier work.

Entries after “also recorded” stand apart in the source; their conditions may differ. Where two headings read alike, the source gives them in different places.

The pKa is the negative logarithm of the acid dissociation constant. As for `O=S(=O)(Nc1cccc(C(F)(F)F)c1)C(F)(F)F` [3,3-CF3 --C6 H4 --NHSO2 CF3], the pKa in series [1] (25° C.) is given as 3.70. Consider `NS(=O)(=O)c1cccc([N+](=O)[O-])c1` [m-NO2 --C6 H4 --SO2 NH2], for which, in series [1] (25° C.), the pKa is on record as 9.40.

In the case of `O=C1CS(=O)(=O)NC(=O)N1` [drawing 3], in series [1] (25° C.), the pKa is given as 2.88. On to `O=C(c1ccccc1)c1cccc(NS(=O)(=O)CF)c1` [m-C6 H5 CO--C6 H4 --NHSO2 CFH2], for which, in series [1] (25° C.), the pKa is 6.77. Turning to `O=S(=O)(Nc1ccc(Cl)cc1C(F)(F)F)C(F)(F)F` [2-CF3-4-Cl--C6 H3 --NHSO2 CF3], in series [1] (25° C.), the pKa was 2.59.

Take `CCc1ccc(NS(=O)(=O)C(F)(F)F)cc1` [p-CH3 CH2 --C6 H4 --NHSO2 CF3]: in series [1] (25° C.), the pKa is recorded as 4.82. Take `NNS(=O)(=O)c1ccccc1` [C6 H5 --SO2 NHNH2]: the pKa in series [1] (25° C.) is listed as 10.60. As for `CNS(C)(=O)=O` [CH3 SO2 NHCH3], the pKa in series [1] (25° C.) is 11.79. Take `O=S(=O)(O)CCCNCCNCCCS(=O)(=O)O` [N,N'-Bis(3-sulphopropyl) ethylenediamine]: the pKa in series [1] (18° C.) was 6.65. Turning to `O=S(=O)(NO)c1ccccc1` [C6 H5 --SO2 NHOH], the pKa in series [1] (25° C.) is recorded as 9.34. In the case of `O=P(O)(O)OC(CO)CO` [Glycerol-2-phosphoric acid], in series [1] (25° C.), the pKa2 is recorded as 6.65.

On to `NS(=O)(=O)C(F)F` [NH2 SO2 CF2 H], for which the pKa in series [1] (25° C.) is reported as 8.06. With `COc1ccc(NS(=O)(=O)c2ccccc2)cc1` [p-CH3 O--C6 H4 --NHSO2 --C6 H5], the pKa in series [1] (20° C.) is 8.70. With `CCS(=O)(=O)NC` [CH3 CH2 SO2 NHCH3], the pKa in series [1] (25° C.) is given as 11.84. In the case of `CC(=O)O` [sodium acetate], the “effect of added buffering salt on slurry pH” value in series [2] is “increases the slurry pH to a significant extent; also recorded: significantly increases the slurry pH”. As to `O=C1CS(=O)(=O)NC(=O)N1` [drawing 5], in series [1] (25° C.), the pKa is 11.00. Consider `CCN(CC)CCN(CC)CC` [Tetraethylethylenediamine], for which the pKa2 in series [1] (25° C.) was 5.89. In the case of `CS(=O)(=O)Nc1cccc(C(=O)c2ccccc2)c1` [m-C6 H5 CO--C6 H4 --NHSO2 CH3], the pKa in series [1] (25° C.) is recorded as 8.19.

On to `NS(=O)(=O)c1ccc(Cl)cc1` [p-Cl--C6 H4 --SO2 NH2], for which the pKa in series [1] (20° C.) is 9.77.

Take `CC(=O)NS(=O)(=O)c1ccc(Br)cc1` [p-Br--C6 H4 --SO2 NHCOCH3]: the pKa in series [1] (25° C.) is given as 4.52. In the case of `O=C(O)/C=C(\CC(=O)O)C(=O)O` [trans-Aconitic acid], in series [1] (25° C.), the pKa1 is reported as 2.80 and the pKa2 is reported as 4.46. `O=C([O-])c1ccccc1O.[Na+]` [sodium salicylate]: the “effect of added buffering salt on slurry pH” value in series [2] is “provides some pH control, but that the effect is less than that exhibited comparatively to the earlier examples”. Take `O=S(=O)(NO)c1ccc(Br)cc1` [p-Br--C6 H4 --SO2 NHOH]: the pKa in series [1] (25° C.) is on record as 9.08. Turning to `NS(=O)(=O)c1ccc(Br)cc1` [p-Br--C6 H4 --SO2 NH2], the pKa in series [1] (25° C.) is recorded as 9.87. Regarding `NS(=O)(=O)c1ccc([N+](=O)[O-])cc1` [p-NO2 --C6 H4 --SO2 NH2], the pKa in series [1] (20° C.) is reported as 9.14.

As to `c1ccc2ncccc2c1` [Quinoline], the pKa in series [1] (25° C.) was 5.00. `O=C1CC(=O)NC(=O)N1` [Barbituric acid]: the pKa in series [1] (25° C.) is on record as 4.04. Consider `Cc1ccc(N)cc1` [p-Toluidine], for which, in series [1] (25° C.), the pKa is given as 5.30. Regarding `Cc1ccc(S(=O)(=O)NO)cc1` [p-CH3 --C6 H4 --SO2 NHOH], the pKa in series [1] (25° C.) was 9.40. Consider `CC(=O)NS(=O)(=O)c1ccc(C)cc1` [p-CH3 --C6 H4 --SO2 NHCOCH3], for which, in series [1] (25° C.), the pKa was 4.92. In the case of `O=S(=O)(Nc1ccc(Cl)cc1Cl)C(F)(F)F` [2,4-dichloro-C6 H3 --NHSO2 CF3], in series [1] (25° C.), the pKa is 2.96. Turning to `O=C(NO)c1cccc([N+](=O)[O-])c1` [m-NO2 --C6 H4 --CONHOH], the pKa in series [1] (25° C.) is recorded as 8.20.

With `NNS(=O)(=O)c1ccc(Br)cc1` [p-Br--C6 H4 --SO2 NHNH2], the pKa in series [1] (25° C.) is given as 10.36. `Cc1c[nH]cn1` [4-Methylimidazole]: the pKa in series [1] (25° C.) is 7.67. On to `CC(=O)c1ccc(NS(=O)(=O)C(F)(F)F)cc1` [p-CH3 CO--C6 H4 --NHSO2 CF3], for which the pKa in series [1] (25° C.) was 3.29. As to `CC(=O)c1ccc(S(=O)(=O)Nc2ccccc2)cc1` [p-COCH3 --C6 H4 --SO2 NH--C6 H5], the pKa in series [1] (20° C.) was 6.94. As to `Cc1cc(Cl)ccc1NS(=O)(=O)C(F)(F)F` [2-CH3-4-Cl--C6 H3 --NHSO2 CF3], the pKa in series [1] (25° C.) was 3.90. As to `NS(=O)(=O)CF` [NH2 SO2 CFH2], the pKa in series [1] (25° C.) is 9.32. In the case of `OCCN(CCO)CCN(CCO)CCO` [Tetrakis-(2-hydroxyethyl) ethylenediamine], the pKa2 in series [1] (25° C.) is given as 4.5. With `CS(=O)(=O)NS(C)(=O)=O` [CH3 SO2 NHSO2 CH3], the pKa in series [1] (25° C.) was 1.36. With `O=S(=O)(Nc1ccccc1)c1ccccc1` [C6 H5 --SO2 NH--C6 H5], the pKa in series [1] (20° C.) was 8.31. Consider `CC(=O)NS(=O)(=O)c1ccccc1` [C6 H5 --SO2 NHCOCH3], for which the pKa in series [1] (25° C.) was 4.72.

As to `Nc1ccccc1C(=O)O` [o-Aminobenzoic acid], the pKa in series [1] (25° C.) was 2.15. Turning to `CC1=NN(c2ccc(C(=O)O)cc2)C(=O)C1=CC=Cc1c(C)nn(-c2ccc(C(=O)O)cc2)c1O` [FD1], the intrinsic electrokinetic charge result in series [3] (FD1 slurries) was “negative”. Also, the “lowest apparent pKa compared with FD2” value in series [3] (FD1 versus FD2) is recorded as “three pH units lower than that observed for FD2”. Moreover, in series [3] (above pH 5, FIG. 2), the “solubility of the dye with increasing pH” value is “marked increased solubility”. As for `CC(=O)NS(=O)(=O)Nc1cccc([N+](=O)[O-])c1` [m-NO2 --C6 H4 --NHSO2 NHCOCH3], the pKa in series [1] (25° C.) is 3.97.

`O=S(=O)(Nc1c(Cl)cc(Cl)cc1Cl)C(F)(F)F` [2,4,6-trichloro-C6 H2 --NHSO2 CF3]: the pKa in series [1] (25° C.) was 2.70. Take `O=C(O)C(Cl)(Cl)Cl` [Trichloroacetic acid]: the pKa in series [1] (25° C.) is 0.66. With `O=c1[nH]c(=O)c2[nH]c(=O)[nH]c2[nH]1` [Uric acid], the pKa in series [1] (25° C.) is recorded as 5.83. `Cc1ccc(C(=O)NO)cc1` [p-CH3 --C6 H4 --CONHOH]: the pKa in series [1] (25° C.) was 8.99. For the compound `O=C1NCCS(=O)(=O)N1`, the pKa in series [1] (25° C.) was 4.51.

Regarding `CC1=NN(c2ccc(C(=O)O)cc2)C(=O)C1=Cc1c(C)nn(-c2ccc(C(=O)O)cc2)c1O` [FD2], the intrinsic electrokinetic charge result in series [4] is listed as “negative”. Further, the “S-shaped ESA transition over the pH interval” value in series [4] (slurry in the absence of surfactant) was 4-6. As for `O=S1(=O)CCCN1`, the pKa in series [1] (25° C.) is 11.39. With `Cc1ccc(S(=O)(=O)NN)cc1` [p-CH3 --C6 H4 --SO2 NHNH2], the pKa in series [1] (25° C.) is reported as 10.71. With `O=S(=O)(Nc1ccc(F)cc1F)C(F)(F)F` [2,4-difluoro-C6 H3 --NHSO2 CF3], in series [1] (25° C.), the pKa is on record as 3.44. For the compound `O=C(c1ccccc1)c1ccc(NS(=O)(=O)C(F)(F)F)cc1` [p-C6 H5 CO--C6 H4 --NHSO2 CF3], in series [1] (25° C.), the pKa is 3.22. For the compound `Cc1ccc(NS(=O)(=O)c2ccccc2)cc1` [p-CH3 --C6 H4 --NHSO2 --C6 H5], the pKa in series [1] (20° C.) was 8.64.

For `O=C(c1ccccc1)c1cccc(NS(=O)(=O)C(F)(F)F)c1` [m-C6 H5 CO--C6 H4 --NHSO2 CF3], the pKa in series [1] (25° C.) is reported as 3.50. Regarding `O=S(=O)(Nc1ccccc1)C(F)F` [C6 H5 --NHSO2 CF2 H], in series [1] (25° C.), the pKa is reported as 6.19.

For the compound `O=[N+]([O-])c1cccc(S(=O)(=O)NO)c1` [m-NO2 --C6 H4 --SO2 NHOH], the pKa in series [1] (25° C.) is 8.60. In the case of `O=C(O)c1ccccc1C(=O)O` [Phthalic acid], the pKa2 in series [1] (25° C.) is on record as 5.41. Turning to `CN(C)CCN` [Dimethylaminoethylamine], the pKa2 in series [1] (25° C.) is recorded as 6.50. Take `NNc1cccc([N+](=O)[O-])c1` [m-NO2 --C6 H4 --NHNH2]: in series [1] (25° C.), the pKa is 9.78. For the compound `O=C(O)c1ccc(S(=O)(=O)Nc2ccccc2)cc1` [p-CO2 H--C6 H4 --SO2 NH--C6 H5], the pKa2 in series [1] (20° C.) is reported as 7.75. As for `O=C(O)CNC(=O)c1ccccc1` [Hippuric acid], in series [1] (25° C.), the pKa is recorded as 3.64. Turning to `O=C(NO)c1ccc(Br)cc1` [p-Br--C6 H4 --CONHOH], the pKa in series [1] (25° C.) is 8.61.

On to `OCc1c[nH]cn1` [4-Hydroxylmethylimidazole], for which the pKa in series [1] (25° C.) is 6.39. Turning to `COc1ccc(NS(=O)(=O)C(F)(F)F)cc1` [p-CH3 O--C6 H4 --NHSO2 CF3], in series [1] (25° C.), the pKa was 4.90.
